Test: Metastables test: challenge with cation exchange resin (Purolite C150), UV 274 nm peak
Format: physicochemical
From the text: FIGS. 3 and 4 show the relative and absolute stability of Applicant's disclosed TSA′ Gd Product as compared to two commercially available and frequently used MRI contrast agents Dotarem® and Clariscan®. The data shown in FIGS. 3 and 4 were obtained as follows. Exposing the product to a cation retaining resin, any free gadolinium ions in the sample are retained on the resin. Since the free gadolinium ions are continually removed, the equilibrium that would normally slow the decomposition of gadolinium DOTA metastable compounds is shifted toward decomposition. […] Gadolinium DOTA complex treated with xylenol orange has a characteristic peak at 274 nm in the ultraviolet spectrum. The amount of metastable gadolinium DOTA complex in the mixture can be inferred by measuring the decrease in this peak height with an ultraviolet spectrometer.
The test procedure used to obtain the foregoing results was as follows: • 1. Expose the resin to water for 24 hours. • 2. Measure the 274 nm peak height of the sample just prior to exposure to resin. This is the initial time point. • 3. Combine one equivalent of resin with one equivalent of the sample and agitate. • 4. […]
A metastable test is used to quantify ideal twisted square antiprismatic (TSA′) locked structures (TSA′ specification is greater than 99.5%). […]
The UV spectra for the time points were acquired over a range of 250-350 nm. The absorbance for the peak at 274 nm was corrected for changes in baseline by linearly interpolating the baseline from before and after the group of peaks around 274 nm (i.e., approximately from 270 to 280 nm) and subtracting the interpolated baseline value at 274 nm from the absorbance of the 274 nm peak maximum.
For the analysis of a time course experiment, it is useful to plot the corrected absorbances of the 274 nm peak as a percentage of the corrected absorbances of the 274 nm peak at the first time point versus time. […]

[1] = after resin purification process of Example 7

- ideal TSA' cages [1]: 99.98%
- non ideal (defective) cages [1]: 200 PPM
- stability compared to Dotarem and Clariscan (FIGS. 3-5) (cation retaining resin, 274 nm peak height, up to 120 minutes): more stable
SMILES: CNC[C@H](O)[C@@H](O)[C@H](O)[C@H](O)CO.O=C([O-])CN1CCN(CC(=O)[O-])CCN(CC(=O)O)CCN(CC(=O)[O-])CC1.[Gd+3] [TSA′ Gd Product, gadoterate meglumine]

Reference: patent US20250041460A1, “LANTHANIDE-BASED CONTRAST AGENTS HAVING IMPROVED STABILITY AND METHODS FOR THEIR PRODUCTION AND PURIFICATION” (Inventure, LLC, priority 2023, published 2025)
